The test system of assay [1] is phospho-FMS in THP-1 cells. The assay is described as follows: Phospho-FMS ELISA assay in THP-1 cells. The format is cell-based. The note with it: Homo sapiens, 4 h compound, M-CSF stimulation 5 min, read-out: pFMS inhibition in THP-1 cells. As to the method:
THP-1 cells (catalog #TIB-202) were obtained from the ATCC. Briefly, cells were grown in RPMI 1640 supplemented with 10% characterized fetal bovine serum, 1% sodium pyruvate, 1% Penicillin-Streptomycin-Glutamine (PSG) and 55 uM 2-mercaptoethanol (Invitrogen, Carlsbad, Calif.) at 37 degrees Celsius, 5% CO2, 95% humidity. Cells were allowed to expand until reaching 70-95% confluency at which point they were subcultured or harvested for assay use.
A serial dilution of test compound was diluted 1:100 in assay medium (RPMI 1640 supplemented with 10% characterized fetal bovine serum) in a 96 well black clear bottom plate (Corning, Corning, N.Y.). In a separate 96 well black clear bottom plate, one hundred and fifty thousand THP-1 cells were added per well in 100 μL in assay medium. Fifty microliters of diluted compound was then added to the cells. Plates were incubated for 4 hours at 37 degrees Celsius, 5% CO2, 95% humidity. At the end of the incubation period, cells were stimulated with 50 μL of a 100 nM solution of recombinant human M-CSF (catalog #216-MC, R & D Systems, Minneapolis, Minn.) in assay medium and the plate was incubated for 5 minutes at 37 degrees Celsius, 5% CO2, 95% humidity. Lysates were prepared and used to perform the phospho-FMS ELISA as described by the manufacturer (catalog #DYC3268, R & D Systems, Minneapolis, Minn.). GraphPad Prism was used to calculate IC50 values obtained from data generated from the ELISA assay.

Assay [2] concerns the target T1, unphosphorylated c-FMS kinase (uFMS, Seq. ID no. 1) (Homo sapiens, UniProt P07333).
T1 construct: purchased Millipore
T1 sequence (P07333 538-972): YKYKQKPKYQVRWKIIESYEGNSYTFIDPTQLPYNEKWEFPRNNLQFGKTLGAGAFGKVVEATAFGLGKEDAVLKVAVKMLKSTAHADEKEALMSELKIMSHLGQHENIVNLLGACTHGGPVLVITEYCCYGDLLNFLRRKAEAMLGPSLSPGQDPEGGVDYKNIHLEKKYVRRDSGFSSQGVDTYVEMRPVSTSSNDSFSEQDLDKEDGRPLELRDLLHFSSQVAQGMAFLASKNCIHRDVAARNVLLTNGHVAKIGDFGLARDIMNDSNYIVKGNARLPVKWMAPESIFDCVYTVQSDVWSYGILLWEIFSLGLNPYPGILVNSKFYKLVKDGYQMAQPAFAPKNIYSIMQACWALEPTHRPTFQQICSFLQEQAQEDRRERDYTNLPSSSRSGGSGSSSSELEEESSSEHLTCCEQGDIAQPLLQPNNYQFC
The assay is described as follows: uFMS kinase enzymatic assay (pyruvate kinase/lactate dehydrogenase coupled). The format is biochemical. The note with it: ATP 500 μM, rate 3 to 4 h. The method in brief:
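Coupled PK/LDH assay following NADH oxidation at A340 with 10 nM unphosphorylated FMS, 1 mg/mL polyE4Y, 500 μM ATP in 90 mM Tris pH 7.5, 0.2% octyl-glucoside, 1% DMSO. Read continuously 4 h at 30 °C; rate from 3–4 h window versus no-compound control; IC50 from percent-inhibition series.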

The structures appear in SMILES notation. pIC50: −log10 of the molar value. Where only a bound is given, the exact number is not on record here.

In patent US9193719B2, “1,2,4-triazol-5-ones and analogs exhibiting anti-cancer and anti-proliferative activities” (Deciphera Pharmaceuticals, LLC, priority 2013, dated 2015) one finds IC50 data, which are given here for 22 compounds.

On to `Cc1nc(-n2nc(C3(C)CC3)[nH]c2=O)ccc1Oc1ccnc(-c2cnn(C)c2)c1` [Example 27, 1-(6-methyl-5-((2-(1-methyl-1H-pyrazol-4-yl)pyridin-4-yl)oxy)pyridin-2-yl)-3-(1-methylcyclopropyl)-1H-1,2,4-triazol-5(4H)-one], for which the pIC50 in assay [1] is 7.00 to 8.00; in assay [2], not below 8.00.
As for `CCn1cc(-c2cc(Oc3ccc(-n4nc(C(C)(C)C)[nH]c4=O)nc3C)ccn2)cn1` [Example 38, 3-(tert-butyl)-1-(5-((2-(1-ethyl-1H-pyrazol-4-yl)pyridin-4-yl)oxy)-6-methylpyridin-2-yl)-1H-1,2,4-triazol-5(4H)-one], the figures for the pIC50 in assay [1] and in assay [2] were 6.00 to 7.00 and not below 8.00, respectively.
On to `Cc1cc(-n2nc(C(C)(C)C)[nH]c2=O)nc(C)c1Oc1ccnc(-c2cnn(C)c2)c1` [Example 33, 3-(tert-butyl)-1-(4,6-dimethyl-5-((2-(1-methyl-1H-pyrazol-4-yl)pyridin-4-yl)oxy)pyridin-2-yl)-1H-1,2,4-triazol-5(4H)-one], for which the pIC50 in assay [1] and in assay [2] was 7.00 to 8.00 each time.
For `Cc1nc(-n2nc(CC(C)C)[nH]c2=O)ccc1Oc1ccnc(-c2cnn(C)c2)c1` [Example 22, 3-isobutyl-1-(6-methyl-5-((2-(1-methyl-1H-pyrazol-4-yl)pyridin-4-yl)oxy)pyridin-2-yl)-1H-1,2,4-triazol-5(4H)-one], the pIC50 in assay [1] and in assay [2] was not below 8.00 in each case.
As for `COC(C)(C)c1nn(-c2ccc(Oc3ccnc(-c4cnn(C)c4)c3)c(C)n2)c(=O)[nH]1` [Example 16, 3-(2-methoxypropan-2-yl)-1-(6-methyl-5-((2-(1-methyl-1H-pyrazol-4-yl)pyridin-4-yl)oxy)pyridin-2-yl)-1H-1,2,4-triazol-5(4H)-one], the pIC50 in assay [1] was 6.00 to 7.00; in assay [2], 7.00 to 8.00.
For `Cc1nc(-n2nc(C(C)(C)C)n(C)c2=O)ccc1Oc1ccnc(-c2cnn(C)c2)c1` [Example 13, 3-(tert-butyl)-4-methyl-1-(6-methyl-5-((2-(1-methyl-1H-pyrazol-4-yl)pyridin-4-yl)oxy)pyridin-2-yl)-1H-1,2,4-triazol-5(4H)-one], the values for the pIC50 in assay [1] and in assay [2] were 6.00 to 7.00 and 7.00 to 8.00, respectively.
Take `Cc1nc(-n2nc(C3(C(F)(F)F)CCC3)[nH]c2=O)ccc1Oc1ccnc(-c2cnn(C)c2)c1` [Example 43, 1-(6-methyl-5-((2-(1-methyl-1H-pyrazol-4-yl)pyridin-4-yl)oxy)pyridin-2-yl)-3-(1-(trifluoromethyl)cyclobutyl)-1H-1,2,4-triazol-5(4H)-one]: the values for the pIC50 in assay [1] and in assay [2] were 6.00 to 7.00 and not below 8.00, respectively.
The corresponding values for `Cc1ccc(-c2cc(Oc3ccc(-n4nc(C(C)(C)C)[nH]c4=O)nc3C)ccn2)cn1` [Example 10, 3-(tert-butyl)-1-(6-methyl-5-((6′-methyl-[2,3′-bipyridin]-4-yl)oxy)pyridin-2-yl)-1H-1,2,4-triazol-5(4H)-one] are 7.00 to 8.00 and 7.00 to 8.00.
Take `Cc1nc(-n2nc(C(C)(C)C)[nH]c2=O)ccc1Oc1ccnc(NC(=O)N(C)C)c1` [Example 30, 3-(4-((6-(3-(tert-butyl)-5-oxo-4,5-dihydro-1H-1,2,4-triazol-1-yl)-2-methylpyridin-3-yl)oxy)pyridin-2-yl)-1,1-dimethylurea]: the pIC50 was 6.00 to 7.00 in assay [1] and 7.00 to 8.00 in assay [2].
On to `CCC(C)(C)c1nn(-c2ccc(Oc3ccnc(-c4cnn(C)c4)c3)c(C)n2)c(=O)[nH]1` [Example 25, 1-(6-methyl-5-((2-(1-methyl-1H-pyrazol-4-yl)pyridin-4-yl)oxy)pyridin-2-yl)-3-(tert-pentyl)-1H-1,2,4-triazol-5(4H)-one], for which the pIC50 is 7.00 to 8.00 in assay [1] and not below 8.00 in assay [2].
For the compound `Cc1cc(-n2nc(C(C)(C)C)[nH]c2=O)ncc1Oc1ccnc(-c2cnn(C)c2)c1` [Example 31, 3-(tert-butyl)-1-(4-methyl-5-((2-(1-methyl-1H-pyrazol-4-yl)pyridin-4-yl)oxy)pyridin-2-yl)-1H-1,2,4-triazol-5(4H)-one], the pIC50 in assay [1] was 7.00 to 8.00; in assay [2] it was not below 8.00.
`Cc1nc(-n2nc(C3CCC3)[nH]c2=O)ccc1Oc1ccnc(-c2cnn(C)c2)c1` [Example 37, 3-cyclobutyl-1-(6-methyl-5-((2-(1-methyl-1H-pyrazol-4-yl)pyridin-4-yl)oxy)pyridin-2-yl)-1H-1,2,4-triazol-5(4H)-one]: the pIC50 in assay [1] and in assay [2] was not below 8.00 in each case.
For the compound `Cc1nc(-n2nc(C3CCCCC3)[nH]c2=O)ccc1Oc1ccnc(-c2cnn(C)c2)c1` [Example 6, 3-cyclohexyl-1-(6-methyl-5-((2-(1-methyl-1H-pyrazol-4-yl)pyridin-4-yl)oxy)pyridin-2-yl)-1H-1,2,4-triazol-5(4H)-one], the pIC50 in assay [1] and in assay [2] was not below 8.00 throughout.
In the case of `Cc1cc(-c2cc(Oc3ccc(-n4nc(C(C)(C)C)[nH]c4=O)nc3C)ccn2)ccn1` [Example 9, 3-(tert-butyl)-1-(6-methyl-5-((2′-methyl-[2,4′-bipyridin]-4-yl)oxy)pyridin-2-yl)-1H-1,2,4-triazol-5(4H)-one], the pIC50 in assay [1] and in assay [2] was 7.00 to 8.00 each time.
Take `Cc1nc(-n2nc(C(C)(C)C)[nH]c2=O)ccc1Oc1ccnc(-c2cnco2)c1` [Example 39, 3-(tert-butyl)-1-(6-methyl-5-((2-(oxazol-5-yl)pyridin-4-yl)oxy)pyridin-2-yl)-1H-1,2,4-triazol-5(4H)-one]: the pIC50 was 6.00 to 7.00 in assay [1] and 7.00 to 8.00 in assay [2].
The corresponding values for `Cn1cc(-c2cc(Oc3ccc(-n4nc(C(C)(C)C)[nH]c4=O)nc3)ccn2)cn1` [Example 4, 3-(tert-butyl)-1-(5-((2-(1-methyl-1H-pyrazol-4-yl)pyridin-4-yl)oxy)pyridin-2-yl)-1H-1,2,4-triazol-5(4H)-one] are 7.00 to 8.00 and not below 8.00.
Taken in the same sequence, the figures for `Cc1nc(-n2nc(C3CCOCC3)[nH]c2=O)ccc1Oc1ccnc(-c2cnn(C)c2)c1` [Example 20, 1-(6-methyl-5-((2-(1-methyl-1H-pyrazol-4-yl)pyridin-4-yl)oxy)pyridin-2-yl)-3-(tetrahydro-2H-pyran-4-yl)-1H-1,2,4-triazol-5(4H)-one] were 6.00 to 7.00 and not below 8.00.
Taken in the same sequence, the figures for `Cc1nc(-n2nc(C(C)(C)C)[nH]c2=O)ccc1Oc1ccnc(-c2ccc(C3CCN(C)CC3)cc2)c1` [Example 14, 3-(tert-butyl)-1-(6-methyl-5-((2-(4-(1-methylpiperidin-4-yl)phenyl)pyridin-4-yl)oxy)pyridin-2-yl)-1H-1,2,4-triazol-5(4H)-one] were 7.00 to 8.00 and not below 8.00.
With `Cc1nc(-n2nc(C(C)(C)C)oc2=O)ccc1Oc1ccnc(-c2cnn(C)c2)c1` [Example 49, 5-(tert-butyl)-3-(6-methyl-5-((2-(1-methyl-1H-pyrazol-4-yl)pyridin-4-yl)oxy)pyridin-2-yl)-1,3,4-oxadiazol-2(3H)-one], the pIC50 in assay [1] and in assay [2] was 7.00 to 8.00 throughout.
Consider `Cc1nc(-n2nc(C(C)C)[nH]c2=O)ccc1Oc1ccnc(-c2cnn(C)c2)c1` [Example 5, 3-isopropyl-1-(6-methyl-5-((2-(1-methyl-1H-pyrazol-4-yl)pyridin-4-yl)oxy)pyridin-2-yl)-1H-1,2,4-triazol-5(4H)-one], for which the pIC50 in assay [1] and in assay [2] was 7.00 to 8.00 each time.
As for `Cn1cc(-c2cc(Oc3ccc(-n4nc(Cc5ccc(F)cc5)[nH]c4=O)nc3)ccn2)cn1` [Example 3, 3-(4-fluorobenzyl)-1-(5-((2-(1-methyl-1H-pyrazol-4-yl)pyridin-4-yl)oxy)pyridin-2-yl)-1H-1,2,4-triazol-5(4H)-one], the pIC50 in assay [1] was 7.00 to 8.00; in assay [2] it was not below 8.00.
The corresponding values for `Cc1nc(-n2nc(C(C)(C)C)[nH]c2=O)ccc1Oc1cc(-c2cnn(C)c2)ncn1` [Example 47, 3-(tert-butyl)-1-(6-methyl-5-((6-(1-methyl-1H-pyrazol-4-yl)pyrimidin-4-yl)oxy)pyridin-2-yl)-1H-1,2,4-triazol-5(4H)-one] are 7.00 to 8.00 and 7.00 to 8.00.
